Test results reported in US12521437B2 (Synthorx, Inc., priority 2019, dated 2026).

Key:
NK cells = assay: pSTAT5 signaling in human LRS-derived PBMC samples, NK cells (flow cytometry); type: cell-based; settings: Table 13 (Example 11)
Protocol: (§1) These studies were performed at PrimityBio LLC (Fremont, CA). […] Staining panel for flow cytometry study of LRS-derived PBMC samples include markers for Effector T cells (Teff: CD3+, CD4+, CD8+, CD127+), NK cells (CD3-, CD16+), and Regulatory T cells (Treg: CD3+, CD4+, CD8-, IL-2Rα+, CD127-1).
(§2) Conjugates of Table 13 were synthesized by modification of SEQ NO. 1. These studies were performed at PrimityBio LLC (Fremont, CA).

CTLL-2 = CTLL-2 proliferation; type: cell-based, mouse; settings: Table 13 (Example 11)
Treg cells = assay: pSTAT5 signaling in human LRS-derived PBMC samples, Treg cells (flow cytometry); type: cell-based; settings: for EC50 for pSTAT5 signaling, Treg cells: Table 13 (Example 11); for Fold increase in Treg EC50 vs native IL-2: compared to native IL-2 run in each individual experiment
Protocol: as §1
(§3) These studies were performed at PrimityBio LLC (Fremont, CA). […] Staining panel for flow cytometry study of LRS-derived PBMC samples include markers CD4, CD4+ memory central, CD4+ memory effect, CD4+ memory T cells, CD4+ Naive T cells, CD4+ T cells, CD8, CD8+ memory central, CD8+ memory effect, CD8+ memory T cells, CD8+ Naive T cells, CD8+ T cells, NK cells, and T regulatory cells.
as §2

CD8+ T cells = assay: pSTAT5 signaling in human LRS-derived PBMC samples, CD8+ T cells (flow cytometry); type: cell-based; settings: Table 13 (Example 11)
Protocol: as §1, §3, §2

[1] = human transferrin; cited from earlier work

Substance	EC50 for pSTAT5 signaling, NK cells (NK cells) [pg/ml]	EC50 CTLL-2 proliferation (CTLL-2) [ng/mL]	EC50 for pSTAT5 signaling, Treg cells (Treg cells) [pg/ml]	Fold increase in Treg EC50 vs native IL-2 (Treg cells)	CD8+/Treg ratio (CD8+ T cells)	EC50 for pSTAT5 signaling, CD8+ Tcells (CD8+ T cells) [pg/ml]	half-life [1] [h]
V91K: IL-2 variant with V91K substitution [reference compound]	20537	0.0995	142	3	720	102255	
N88R/D109_30kD: IL-2 variant with N88R substitution and 30 kD PEG at D109	2780819	59.577	175805	3663	71	12503386	
human transferrin: 679 amino acid polypeptide that is about 80 kDa in size and comprises two Fe^3+ binding sites							170 to 288
N88R: IL-2 variant with N88R substitution [reference compound]	2312847	0.363	11082	148	1356	15025734	
